In ChEMBL document CHEMBL6071163, “The multicomponent Passerini reaction as a means of accessing diversity in structure, activity and properties: Soft and hard vanilloid/cannabinoid modulators” (Eur J Med Chem, 2024):

Experiments:
Cannabinoid receptor 1 = Cannabinoid receptor 1 (Homo sapiens, UniProt P21554); assay: Agonist activity at recombinant human CB1 receptor expressed in HEK293-CNG cells assessed as reduction in forskolin-induced cAMP accumulation incubated for 60 mins by fluorescence based analysis; format: functional, cell-based
[1] = molecular target: T1, Transient receptor potential cation channel subfamily V member 1 (Homo sapiens, UniProt Q8NER1); assay: Agonist activity at recombinant human TRPV1 transfected in HEK293 cells assessed as increase in intracellular Ca2+ influx by Fluo-4 NW Ca2+ dye based microfluorometric calcium flux assay
[2] = Metabolic stability in human plasma assessed as parent compound remaining at 50 uM incubated for 60 mins
[3] = Metabolic stability in human Keratinocytes assessed as parent compound remaining at 5 uM incubated for 120 mins
Cannabinoid receptor 2 [4] = molecular target: T2, Cannabinoid receptor 2 (Homo sapiens, UniProt P34972); assay: Agonist activity at recombinant human CB2 receptor expressed in HEK293-CNG cells assessed as reduction in forskolin-induced cAMP accumulation incubated for 60 mins by fluorescence based analysis; format: functional, cell-based
[5] = Metabolic stability in human HaCaT cells assessed as parent compound remaining at 5 uM incubated for 120 mins
[6] = molecular target: T1, Transient receptor potential cation channel subfamily V member 1; assay: Agonist activity at human TRPV1 expressed in HEK293 cells assessed as induction of current by patch clamp assay
[7] = Metabolic stability in human liver S9 fraction assessed as parent compound remaining at 5 uM incubated for 60 mins
[8] = Metabolic stability in human skin S9 fraction assessed as parent compound remaining at 5 uM incubated for 60 mins
[9] = Metabolic stability in human Fibroblast assessed as parent compound remaining at 5 uM incubated for 120 mins; conditions: fibroblasts
[10] = molecular target: T1, Transient receptor potential cation channel subfamily V member 1
Cannabinoid receptor 2 [11] = molecular target: T2, Cannabinoid receptor 2; assay: Antagonist activity at recombinant human CB2 receptor expressed in HEK293-CNG cells assessed as cAMP accumulation incubated for 60 mins in presence of forskolin by fluorescence based analysis; format: functional, cell-based

T1 sequence (Q8NER1 whole entry): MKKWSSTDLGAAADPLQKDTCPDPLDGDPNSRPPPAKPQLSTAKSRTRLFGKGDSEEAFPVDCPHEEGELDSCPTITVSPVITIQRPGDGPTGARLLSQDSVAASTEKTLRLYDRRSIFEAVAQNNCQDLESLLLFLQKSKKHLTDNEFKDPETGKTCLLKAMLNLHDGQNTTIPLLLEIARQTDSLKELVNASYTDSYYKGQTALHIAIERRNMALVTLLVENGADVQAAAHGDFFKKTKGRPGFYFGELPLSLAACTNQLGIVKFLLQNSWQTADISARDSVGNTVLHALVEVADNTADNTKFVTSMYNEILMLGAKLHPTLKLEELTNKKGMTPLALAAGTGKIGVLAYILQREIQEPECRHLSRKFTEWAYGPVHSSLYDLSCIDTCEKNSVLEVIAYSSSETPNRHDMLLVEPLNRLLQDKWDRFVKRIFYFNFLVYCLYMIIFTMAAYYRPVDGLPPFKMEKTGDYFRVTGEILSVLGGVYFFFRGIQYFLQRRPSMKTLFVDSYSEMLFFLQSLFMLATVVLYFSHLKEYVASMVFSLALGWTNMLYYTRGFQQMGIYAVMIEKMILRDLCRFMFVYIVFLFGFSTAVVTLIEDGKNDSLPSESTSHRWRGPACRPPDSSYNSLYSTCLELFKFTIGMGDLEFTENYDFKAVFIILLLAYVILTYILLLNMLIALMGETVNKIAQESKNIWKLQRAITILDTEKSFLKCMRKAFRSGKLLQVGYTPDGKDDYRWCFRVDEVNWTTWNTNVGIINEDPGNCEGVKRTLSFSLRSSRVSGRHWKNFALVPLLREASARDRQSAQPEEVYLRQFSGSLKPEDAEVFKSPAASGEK
Sequence of Cannabinoid receptor 1 (P21554 whole entry): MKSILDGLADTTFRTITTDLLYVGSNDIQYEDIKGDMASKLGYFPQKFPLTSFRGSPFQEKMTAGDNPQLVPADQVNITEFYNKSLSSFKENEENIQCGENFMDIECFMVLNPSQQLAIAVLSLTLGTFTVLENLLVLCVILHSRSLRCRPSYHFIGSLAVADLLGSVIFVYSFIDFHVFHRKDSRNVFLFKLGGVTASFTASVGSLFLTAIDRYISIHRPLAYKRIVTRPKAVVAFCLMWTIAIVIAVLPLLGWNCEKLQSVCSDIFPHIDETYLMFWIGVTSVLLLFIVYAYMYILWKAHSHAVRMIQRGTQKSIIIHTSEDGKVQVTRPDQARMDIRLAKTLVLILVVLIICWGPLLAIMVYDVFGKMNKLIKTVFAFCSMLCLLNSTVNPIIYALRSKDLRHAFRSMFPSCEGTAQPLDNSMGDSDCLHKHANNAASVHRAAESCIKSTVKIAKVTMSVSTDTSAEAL
T2 sequence (P34972 whole entry): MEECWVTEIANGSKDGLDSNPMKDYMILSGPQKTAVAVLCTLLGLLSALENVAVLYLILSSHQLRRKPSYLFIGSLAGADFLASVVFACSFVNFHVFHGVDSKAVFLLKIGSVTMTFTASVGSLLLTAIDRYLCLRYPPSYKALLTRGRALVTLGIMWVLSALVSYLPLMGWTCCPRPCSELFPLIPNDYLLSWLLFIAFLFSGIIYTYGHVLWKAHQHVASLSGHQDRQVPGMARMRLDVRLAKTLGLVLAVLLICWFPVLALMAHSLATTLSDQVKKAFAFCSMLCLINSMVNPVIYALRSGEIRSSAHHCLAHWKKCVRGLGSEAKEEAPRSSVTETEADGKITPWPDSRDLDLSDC

| SMILES | EC50 (Cannabinoid receptor 1) [µM] | EC50 [1] [µM] | EC50 (Cannabinoid receptor 2 [4]) [µM] | other results |
| --- | --- | --- | --- | --- |
| CCCCC/C=C\C/C=C\C/C=C\C/C=C\CCCC(=O)OCC(=O)NC1CC1 | 13.8 |  |  |  |
| CC(C)=CCC/C(C)=C/C(=O)OCC(=O)NC1CC1 |  | 33.1 |  |  |
| C=CCNC(=O)COC(=O)CCCCCCC/C=C\CCCCCCCC |  | 4.7 |  |  |
| CC(C)=CCC/C(C)=C/C(=O)OCC(=O)NCCO |  | 26.8 | 37.8 | remaining at 1 h, 50 µM [2]: 89%; remaining at 2 h, 5 µM [3]: 96%; remaining at 2 h, 5 µM [5]: 98%; EC50 [6]: 47.5 µM; remaining at 1 h, 5 µM [7]: 89%; remaining at 1 h, 5 µM [8]: 96%; remaining at 2 h, 5 µM [9]: 93% |
| CCCCCC[C@H](C/C=C\CCCCCCCC(=O)OCC(=O)NCCc1ccc(O)c(O)c1)OC(=O)Cc1ccccc1 |  | 3.1 |  |  |
| CCCCCCCC(=O)OCC(=O)NCCc1ccc(O)c(O)c1 | 13.9 | 10.6 |  |  |
| CCCCC/C=C\C/C=C\C/C=C\C/C=C\CCCC(=O)OCC(=O)NCCc1ccc(O)c(O)c1 |  | 1 |  |  |
| C=CCNC(=O)COC(=O)CC/C(C)=C/CC/C(C)=C/CC/C=C(\C)CC/C=C(\C)CCC=C(C)C |  | 36.4 |  |  |
| C=CCNC(=O)COC(=O)CCCCCCC/C=C\C[C@@H](CCCCCC)OC(=O)Cc1ccccc1 |  | 15.2 |  |  |
| CC(C)=CCC/C(C)=C/C(=O)OCC(=O)NCCc1ccc(O)c(O)c1 | 118 |  | 89.9 |  |
| CCCCC/C=C\C/C=C\C/C=C\C/C=C\CCCC(=O)OCC(=O)NCCO | 30.6 | 2.1 |  | remaining at 1 h, 50 µM [2]: > 99%; remaining at 2 h, 5 µM [3]: 97%; remaining at 2 h, 5 µM [5]: > 99%; remaining at 1 h, 5 µM [7]: 24%; remaining at 1 h, 5 µM [8]: 76%; remaining at 2 h, 5 µM [9]: 73% |
| CCCCCC[C@H](C/C=C\CCCCCCCC(=O)OCC(=O)NC1CC1)OC(=O)Cc1ccccc1 |  | 2.6 |  |  |
| O=C(CO)NCCO | > 100 | > 100 | > 100 |  |
| CCCCCC[C@H](C/C=C\CCCCCCCC(=O)OCC(=O)NCCO)OC(=O)Cc1ccccc1 |  | 3.7 |  |  |
| CCCCCCCCCCCC(=O)OCC(=O)NC1CC1 |  | 1.7 | 87.6 | remaining at 1 h, 50 µM [2]: 80%; remaining at 2 h, 5 µM [3]: 99%; remaining at 2 h, 5 µM [5]: 94%; remaining at 1 h, 5 µM [7]: 1%; remaining at 1 h, 5 µM [8]: 69%; remaining at 2 h, 5 µM [9]: 62% |
| CCCCCCCCCCCC(=O)OCC(=O)NCCc1cc(O)c(O)cc1I |  |  |  | IC50 [10]: 64.9 µM |
| C=CCNC(=O)CO | > 100 | > 100 | > 100 |  |
| O=C(CO)NCCc1ccc(O)c(O)c1 | > 100 |  | > 100 |  |
| C=CCNC(=O)COC(=O)CCC/C=C\C/C=C\C/C=C\C/C=C\CCCCC | 16.6 | 21.8 | 62 |  |
| O=C(CO)NC1CC1 | > 100 | > 100 | > 100 |  |
| CCCCCCCC(=O)OCC(=O)NCCc1cc(O)c(O)cc1I |  |  | > 100 | remaining at 1 h, 50 µM [2]: 13%; remaining at 2 h, 5 µM [3]: 85%; remaining at 2 h, 5 µM [5]: 73%; remaining at 1 h, 5 µM [7]: 1%; IC50 [10]: 54.2 µM; remaining at 1 h, 5 µM [8]: 27%; remaining at 2 h, 5 µM [9]: 69% |
| COc1ccc(C(=O)c2c(C)n(CCN3CCOCC3)c3cc(I)ccc23)cc1 |  |  |  | IC50 (Cannabinoid receptor 2 [11]): 0.03 µM |
| CC(C)=CCC/C(C)=C/C(=O)OCC(=O)NCCc1cc(O)c(O)cc1I | 41.4 |  | 36.8 |  |
| C=CCNC(=O)COC(=O)CCCCCCCCCCC |  | 11.4 |  |  |
| CCCCCC[C@H](C/C=C\CCCCCCCC(=O)OCC(=O)NCCc1cc(O)c(O)cc1I)OC(=O)Cc1ccccc1 |  |  |  | IC50 [10]: > 100 µM |
| C=CCNC(=O)COC(=O)CCCCCCC |  | 23.3 |  |  |
| CC(C)=CCC/C(C)=C/CC/C(C)=C/CC/C=C(\C)CC/C=C(\C)CCC(=O)OCC(=O)NC1CC1 | 196 | 13.4 |  |  |
| CCCCCCCC/C=C\CCCCCCCC(=O)OCC(=O)NC1CC1 | 27.9 | 0.7 |  |  |
| O=C(CO)NCCc1cc(O)c(O)cc1I | > 100 |  | > 100 | IC50 [10]: > 100 µM |
